Measurements as given in PubChem BioAssay (NCI).
“And” between values parts separate entries of the source, which are not always exact repeats. Equal values may be shown once.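 Results reflect a 48-hour exposure of cells in 96-well plates to compound at five concentrations. Here, GI50 denotes the concentration required for 50% inhibition of growth. At the TGI there is no net growth.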

Experiments:
Assay in all cases: NCI anticancer screen, dose series, 48 h
SK-MEL-28 melanoma = tested on: SK-MEL-28 melanoma
SF-539 CNS = tested on: SF-539 CNS
OVCAR-8 ovarian = tested on: OVCAR-8 ovarian
UACC-62 melanoma = tested on: UACC-62 melanoma
MOLT-4 leukemia = tested on: MOLT-4 leukemia
HT29 colon = tested on: HT29 colon
SK-MEL-2 melanoma = tested on: SK-MEL-2 melanoma
HS 578T breast = tested on: HS 578T breast
SW-620 colon = tested on: SW-620 colon
K-562 leukemia = tested on: K-562 leukemia

Compound | TGI (SK-MEL-28 melanoma) | TGI (SF-539 CNS) | TGI (OVCAR-8 ovarian) | TGI (UACC-62 melanoma) | TGI (MOLT-4 leukemia) | TGI (HT29 colon) | TGI (SK-MEL-2 melanoma) | TGI (HS 578T breast) [µM] | TGI (SW-620 colon) | TGI (K-562 leukemia) | GI50 (K-562 leukemia) [µM] | GI50 (SF-539 CNS) [µM] | GI50 (OVCAR-8 ovarian) [µM] | GI50 (UACC-62 melanoma) [µM] | GI50 (MOLT-4 leukemia) [µM] | GI50 (HT29 colon) [µM] | GI50 (SK-MEL-2 melanoma) [µM] | GI50 (SW-620 colon) [µM] | GI50 (SK-MEL-28 melanoma) [µM] | GI50 (HS 578T breast) [µM]
N#Cc1ccccc1NC(=O)/C(=N\NC(=O)c1ccncc1)C(c1cnc2ccc([N+](=O)[O-])cc2n1)[N+](=O)[O-] (stereo not given) | > 100 µM | > 100 µM | > 100 µM | > 100 µM | > 100 µM | > 100 µM | > 100 µM | > 100 | > 100 µM | – | – | – | – | – | – | – | – | – | – | –
Clc1ccc(-n2nnc(C3=NCCCN3)c2-c2ccccc2)cc1 | > 100 µM | > 100 µM | > 100 µM | > 100 µM | > 100 µM | > 100 µM | > 100 µM | – | > 100 µM | > 100 µM | – | – | – | – | – | – | – | – | – | –
N#CC1=C(N)OC2=C(COc3ccc(F)cc32)C1c1ccc(Cl)cc1 (stereo not given) | – | 81.6 µM | > 100 µM | 42.6 µM | > 100 µM | > 100 µM | > 100 µM | – | > 100 µM | 82 µM | 27.3 | 29.5 | 51.1 | 18.5 | 44.7 | 50.4 | 35.1 | 53.3 | – | –
c1cc2c(cc1C(N1CCNCC1)N1CCNCC1)OCO2 | > 100 µM | > 100 µM | > 100 µM | > 100 µM | – | > 100 µM | > 100 µM | > 100 | > 100 µM | 5.6 µM | – | – | – | – | – | – | – | – | – | –
CC(=O)OCC1OC(OC2CC3C(C)(C)C(OC(C)=O)CC[C@]3(C)C3CCC45CC4(CC[C@H]5C(C)CC(O)[C@@H](O)C(C)(C)O)[C@]23C)C(O)C(O)C1O (stereo not given in full) | 13.7 µM and 17.8 µM | 13.5 µM and 18.9 µM | 13.9 µM and 22.5 µM | 12.2 µM and 16.5 µM | 45 µM and 10.5 µM | 14.3 µM and 10.6 µM | 16.8 µM and 7.36 µM | – | 14 µM and 13.7 µM | 13.8 µM and 18.7 µM | 3.47 | – | 8.43 | 4.9 | 0.0045 | 3.37 | 2.87 | 3.54 | 5.21 | –
COc1ccc(/C=C2\CN(C(=O)C(Cl)Cl)C/C(=C\c3ccc(OC)c(OC)c3)C2=O)cc1OC | – | – | > 100 µM | 0.549 µM | > 100 µM | – | > 100 µM | – | – | > 100 µM | 0.0366 | – | 0.0495 | 0.185 | 0.135 | 0.0781 | 1.85 | – | – | –
Cc1cccc(C)c1NC(=O)CCCC(=O)CC(=O)/C=C/c1ccccc1 | > 100 µM | > 100 µM | > 100 µM | > 100 µM | > 100 µM | > 100 µM | > 100 µM | – | > 100 µM | > 100 µM | – | – | – | – | – | – | – | – | – | –
Cc1nc2c(=O)[nH]c(=O)n(C)c2[nH]c1=O | > 100 µM | – | > 100 µM | > 100 µM | > 100 µM | > 100 µM | > 100 µM | – | > 100 µM | > 100 µM | – | – | – | – | – | – | – | – | – | –
C=CC[C@H]1C[C@@]2(C)OC[C@H](C(C)C)N2C1=O | > 100 µM | > 100 µM | > 100 µM | > 100 µM | – | > 100 µM | > 100 µM | – | > 100 µM | > 100 µM | – | – | – | – | – | – | – | – | – | –
CCCCCCCCCCC(C)CCCCCCC(=O)OCC(COP(=O)([O-])OCC[N+](C)(C)C)OC(=O)CCCCCCC(C)CCCCCCCCCC (stereo not given) | > 100 µM | – | > 100 µM | > 100 µM | > 100 µM | > 100 µM | > 100 µM | – | > 100 µM | > 100 µM | – | – | – | – | – | – | – | – | – | –
S=c1[nH]c(=S)c2sc(=S)n(-c3ccccc3)c2[nH]1 | > 100 µM | > 100 µM | > 100 µM | > 100 µM | > 100 µM | > 100 µM | > 100 µM | – | > 100 µM | > 100 µM | – | – | – | – | – | – | – | – | – | –
CN(C)CC(/C(Cc1ccccc1)=N\NC(=O)c1ccncc1)c1ccccc1 (stereo not given) | > 100 µM | > 100 µM | > 100 µM | > 100 µM | – | > 100 µM | 42.1 µM | – | > 100 µM | > 100 µM | – | – | – | – | – | – | – | – | – | –
O=C(/C=C/C=C/c1ccccc1)CCc1ccccc1 | – | > 100 µM | > 100 µM | > 100 µM | 56.1 µM | > 100 µM | > 100 µM | > 100 | > 100 µM | – | – | – | – | – | – | – | – | – | – | –
c1nc2cscc2c2cscc12 | > 100 µM | > 100 µM | > 100 µM | > 100 µM | > 100 µM | > 100 µM | > 100 µM | – | > 100 µM | > 100 µM | – | – | – | – | – | – | – | – | – | –
COc1ccc(C2S/C(=C\c3cc(OC)c(OC)c(OC)c3)C(=O)N2NC(=O)Cc2ccccc2)cc1 (stereo not given) | > 100 µM | > 100 µM | > 100 µM | > 100 µM | > 100 µM | > 100 µM | > 100 µM | – | > 100 µM | > 100 µM | – | – | – | – | – | – | – | – | – | –
O=[N+]([O-])c1ccc(Sc2c3ccccc3nc3ccccc23)cc1 | > 100 µM | > 100 µM | > 100 µM | > 100 µM | > 100 µM | > 100 µM | > 100 µM | – | > 100 µM | > 100 µM | – | – | – | – | – | – | – | – | – | –
Nc1nc(Nc2ccc3c(c2)CC[C@@H](N2CCCC2)CC3)nn1-c1cc2c(nn1)-c1ccccc1CCC2 | 3.27 µM | – | – | 3.67 µM | 3.63 µM | 4.01 µM | 3.89 µM | 4.86 | 3.44 µM | – | – | – | – | 1.89 | 0.82 | 1.08 | 1.93 | 1.7 | 1.77 | 1.79
Cc1cc(O)c(C(=O)CC2(O)C(=O)Nc3c(Cl)cc(Cl)cc32)c(=O)o1 (stereo not given) | > 100 µM | > 100 µM | > 100 µM | > 100 µM | > 100 µM | > 100 µM | > 100 µM | – | > 100 µM | > 100 µM | – | – | – | – | – | – | – | – | – | –
N#CC1=C(N)N=C(N2CCCCC2)C(C#N)C12Nc1ccccc1S2 (stereo not given) | > 100 µM | 75.4 µM | > 100 µM | 49.1 µM | > 100 µM | > 100 µM | 79 µM | – | > 100 µM | > 100 µM | > 100 | 30.7 | 38.3 | 16.9 | > 100 | 29.8 | 36.4 | 38.4 | 26.6 | –
O=C(Nc1ccc(-n2cc(-c3ccncc3)c(-c3ccc(Cl)c(O)c3)n2)cc1)Nc1cc(C(F)(F)F)cc(C(F)(F)F)c1 | 4.34 µM | 6.4 µM | 5.48 µM | 5.37 µM | 7.37 µM | 3.74 µM | 3.45 µM | 6.59 | 4.44 µM | – | – | 1.94 | 1.99 | 2.23 | 1.95 | 1.95 | 1.8 | 2.24 | 2.01 | 2.04
